Experimental findings from US10179928B2, “Methods and tests for screening bacterial biofilms” (Helmholtz-Zentrum fuer Infektionsforschung GmbH, priority 2009, dated 2019) are described below.

For test [1], the system named is P. aeruginosa biofilms (PA14 and five clinical CF isolates). Kind of test: Biofilm susceptibility test: 96-well biofilm, BacLight (Syto9/PI) staining, automated CLSM, PHLIP biovolume analysis. It is filed as cell-based, Pseudomonas aeruginosa. On the procedure: The evening before the inoculation of the 96-well microtitre plates, inoculate bacteria from a single colony into 2 ml of LB medium in a tube and incubate the preculture in an orbital shaker (180 r.p.m.) at 37° C. overnight (˜16 h). The next morning, prepare a subculture from the overnight culture by diluting it with fresh LB medium to an OD600 of 0.02. The total volume of the inoculated medium depends on the number of replicates and the number of antibiotics or antibiotic dilutions to be tested for this isolate. II. Biofilm Growth Take off the lid of the designated number of sterile half-area μClear microtitre plates and use 100 μl per well of the diluted overnight culture(s) (Step 2) to inoculate the wells (testing different antibiotics, antibiotic dilutions and a minimum of two replicates for each combination). Thereafter, seal the plate(s) with an air-permeable cover foil (no lid) and incubate for 24 h at 37° C. in an incubator with humid atmosphere. III. Antibiotic-Treatment of the Biofilms After 24 h of growth, the biofilms within the wells of the microtitre plate were exposed to antibiotics. Stock solutions of the chosen antibiotics in LB medium were prepared and two-fold serial dilutions in fresh LB-medium were performed. […] To add the antibiotic dilutions to the microtitre plates, the plates were taken out of the incubator into a safety cabinet. The cover foil was removed and 40 μl antibiotic solution to the appropriate well (different antibiotics/concentrations) were added except to the control well(s) where only LB is added. IV. Staining of the Biofilms Prepare staining solution as described above (see REAGENT SETUP). […] Cover the microtitre plate with a fresh air-permeable foil and return the plate to the incubator. Continue incubation for 24 h at 37° C. before imaging. Immediately before microscopy (after ˜48 h total incubation time), remove the microtitre plate with treated biofilms from the incubator. V. Microscopy Automated Run or Manual Run When using the automated confocal Opera system, two positions at the center of each well are chosen automatically to acquire z-stacks of the biofilms. […] Focal planes are acquired starting from the bottom of the plate (position 0) with an interplane distance (z-step size) of 3 μm (using a 40×/0.85 numerical-aperture (NA) air objective). Syto9 is excited with a 488-nm laser and detected with a 540/75 nm band-pass emission filter, whereas PI is excited at 561 nm and detected with a 600/40 nm band-pass emission filter. If a non-automated confocal microscope is used, choose adequate filter settings for Syto9 and PI. To enhance comparability, biofilm images should be recorded at the center of a well. In a manual process, due to time reasons image acquisition might be reduced to one stack per well if 2-3 replicates of the same sample are present within the plate. VI. Data Analysis Computer Calculation Save the image stacks as single .bmp image files (image files may require conversion, for example, with MATLAB software). Batch-process all images using a background subtraction tool (for example, the ‘Subtract Background’ command in ImageJ). Following background subtraction, use an Otsu-thresholding algorithm to obtain thresholded binary images (8-bit format). Reduce the appearance of planktonic bacteria and outlying pixels with a noise filter (such as the ‘Remove Outliers’ command in ImageJ). Steps 11-13 are exemplified in Supplementary FIG. 1. Reassemble the image stacks from the individual processed binary images for each position and channel with Auto PHLIP-ML software. Use the MATLAB-based tool PHLIP (without connected volume filtration) to calculate descriptive parameters of biofilms (including biovolume, substratum coverage, area-to-volume ratio, spatial spreading and 3D colocalization) from the integrated total of each individual slice of a thresholded z-stack.

The test system of test [2] is P. aeruginosa PA14 and five clinical strains. Kind of test: CFU determinations of whole well content (planktonic and biofilm bacteria). It counts as cell-based, Pseudomonas aeruginosa.
The test system of test [3] is P. aeruginosa PA14 and five clinical CF isolates (planktonic). Kind of test: Planktonic MIC determination with the semi-automated Vitek2 system. To be noted: for MIC: Pseudomonas aeruginosa, Vitek2.
Method: Clinical isolates were recovered from the respiratory tracts of chronically infected people with CF at the Hannover Medical School and differed according to morphology and resistance profile. The MICs were determined by the use of the semi-automated Vitek2 system (Biomerieux).
For test [4], the system named is mixed bacterial communities from sputum specimens of two cystic fibrosis patients. The test is described as follows: Multi species biofilm susceptibility test of sputum specimens. It counts as cell-based. The conditions noted are these: one sputum sample; 1 mg ml−1.

Values after ≈ are worked out from the molar mass of the structure shown. A value given as a limit tells only on which side of the number the result lay.

As a reminder, the MIC is the least concentration at which growth counts as inhibited. High values mean a less susceptible organism, low ones a more susceptible organism. On to `CC(C)(O/N=C(\C(=O)N[C@@H]1C(=O)N2C(C(=O)[O-])=C(C[n+]3ccccc3)CS[C@H]12)c1csc(N)n1)C(=O)O` [ceftazidime], for which, in test [1] (isolate 5497), the biofilm response entry was “✓ (Biofilms were categorized as responsive (✓) if a consistent increase in the fraction of red and yellow (colocalized) fluorescenct biovolume (reaching ~ 80% of the total biovolume) within a given antibiotic concentration range was detected.)”. In test [1] (strain 5497), the “RY biovolume of the total biovolume” value is given as approximately 80%. Besides, the CFU count is on record as 10^6 cells per ml in test [2] (strain 5497) and 10^6 cells per ml in test [2] (strain PA14, without correlated imaging data). The minimum inhibitory concentration (MIC) in test [3] (isolate 5497, planktonic) is 1 µg/mL (≈ 1.83 µM); in test [3] (isolate 5520, planktonic), 4 µg/mL (≈ 7.32 µM); in test [3] (isolate 5522, planktonic), 4 µg/mL (≈ 7.32 µM); in test [3] (isolate 5524, planktonic), 2 µg/mL (≈ 3.66 µM); in test [3] (isolate 5529, planktonic), not above 1 µg/mL; in test [3] (isolate PA14, planktonic) it was not above 1 µg/mL. The MIC interpretation category entry in test [3] (isolate 5497, Vitek2) was “S”; in test [3] (isolate 5520, Vitek2), “S”; in test [3] (isolate 5522, Vitek2), “S”; in test [3] (isolate 5524, Vitek2), “S”; in test [3] (isolate 5529, Vitek2) it was “S”; in test [3] (isolate PA14, Vitek2) it was “S”.

For the molecule `CC(C)O` [isopropanol], the “fraction of green fluorescence in killed biofilm” value in test [1] (biofilms of three clinical isolates, killing control) is 10-20%. For the same molecule, the “killing verified by CFU counts” value in test [2] (biofilms of three clinical isolates) is on record as “efficiently killed”.

As for `C[C@@H](O)[C@H]1C(=O)N2C(C(=O)O)=C(S[C@@H]3CN[C@H](C(=O)N(C)C)C3)[C@H](C)[C@H]12` [meropenem], the “susceptibility under biofilm growth conditions” value in test [1] (all strains) is “resistance”. The CFU counts in test [2] (strain 5529 at 128 μg ml−1) is on record as ~10^6 cells per ml. The MIC was not above 0.25 µg/mL in test [3] (isolate 5497, planktonic); 0.5 µg/mL (≈ 1.3 µM) in test [3] (isolate 5520, planktonic); 2 µg/mL (≈ 5.22 µM) in test [3] (isolate 5522, planktonic); not above 0.25 µg/mL in test [3] (isolate 5524, planktonic); 1 µg/mL (≈ 2.61 µM) in test [3] (isolate 5529, planktonic); not above 0.25 µg/mL in test [3] (isolate PA14, planktonic). Further, the MIC interpretation category entry in test [3] (isolate 5497, Vitek2) was “S”; in test [3] (isolate 5520, Vitek2), “S”; in test [3] (isolate 5522, Vitek2), “S”; in test [3] (isolate 5524, Vitek2), “S”; in test [3] (isolate 5529, Vitek2), “S”; in test [3] (isolate PA14, Vitek2), “S”.

Turning to `NC[C@H]1O[C@H](O[C@H]2[C@H](O)[C@@H](O[C@H]3O[C@H](CO)[C@@H](O)[C@H](N)[C@H]3O)[C@H](N)C[C@@H]2N)[C@H](N)C[C@@H]1O` [tobramycin], the biofilm response result in test [1] (isolate 5497) is “✓ (Biofilms were categorized as responsive (✓) if a consistent increase in the fraction of red and yellow (colocalized) fluorescenct biovolume (reaching ~ 80% of the total biovolume) within a given antibiotic concentration range was detected.)”; in test [1] (isolate 5520), “✓ (Biofilms were categorized as responsive (✓) if a consistent increase in the fraction of red and yellow (colocalized) fluorescenct biovolume (reaching ~ 80% of the total biovolume) within a given antibiotic concentration range was detected.)”; in test [1] (isolate PA14) it was “✓ (Biofilms were categorized as responsive (✓) if a consistent increase in the fraction of red and yellow (colocalized) fluorescenct biovolume (reaching ~ 80% of the total biovolume) within a given antibiotic concentration range was detected.)”. In addition, the “fraction of the RY biovolume of the total biovolume” value in test [1] (strain 5529 at 512 μg ml−1) is given as approximately 80%. For the same molecule, the “fraction of the RY (red+yellow) biovolume of the total biovolume” value in test [1] (strains PA14, 5497 and 5520, increasing concentrations, 2-512 μg ml−1) is given as approximately 80%. Also, the “change in CFUs” value in test [2] (strains 5522, 5524 and 5529, low antibiotic concentrations) is recorded as “minor decrease”. For the same molecule, the CFU counts in test [2] (strains PA14, 5497 and 5520, increasing concentrations) is listed as ≤ 10^5 cells per ml. Besides, the MIC is not above 0.25 µg/mL in test [3] (isolate 5497, planktonic); 1 µg/mL (≈ 2.14 µM) in test [3] (isolate 5520, planktonic); more than 32 µg/mL in test [3] (isolate 5522, planktonic); 1 µg/mL (≈ 2.14 µM) in test [3] (isolate 5524, planktonic); more than 32 µg/mL in test [3] (isolate 5529, planktonic); 1 µg/mL (≈ 2.14 µM) in test [3] (isolate PA14, planktonic). Also, the MIC interpretation category result is “S” in test [3] (isolate 5497, Vitek2); “S” in test [3] (isolate 5520, Vitek2); “R” in test [3] (isolate 5522, Vitek2); “S” in test [3] (isolate 5524, Vitek2); “R” in test [3] (isolate 5529, Vitek2); “S” in test [3] (isolate PA14, Vitek2).

In the case of colistin, the “biofilm responsiveness” value in test [4] is listed as “responsive”.
